Patent EP4599827A1, “DGL FOR THE INDUCTION OF ENDOTHELIAL-DERIVED NO-DEPENDENT VASODILATION” (Dr. Kurt Wolff GmbH & Co. KG, priority 2024, dated 2025)

Assays:
Assay type in all cases: cell-based, human
[1] = system: eNOS; test: Immunocytochemistry of eNOS expression in HDMECs; settings: semiquantitative immunocytochemistry, 24 h treatment, DMG-Na 0,005%, 0,02% and 0,05%
Source text: (§1) Adulte humane mikrovaskuläre Endothelzellen der Haut (HDMECs) wurden 2023 von Lonza Ltd (Basel, Schweiz) erworben und kultiviert in EBM™-2 Endothelial Cell Growth Basal Medium, ergänzt mit EGM™-2 MV Microvascular Endothelial SingleQuots™ Kit (beide von Lonza Ltd, Basel, Schweiz), enthaltend humanen epidermalen Wachstumsfaktor, vaskulären Endothelial Growth Factor, R^3-Insulin-like Growth Factor-1, Ascorbinsäure, Hydrocortison, humanen Fibroblasten-Wachstumsfaktor-Beta, fötales Rinderserum und Gentamicin/Amphotericin-B und gemäß den Richtlinien des Herstellers kultiviert. Die HDMECs wurden von 2 verschiedenen weiblichen Spendern initiiert und es wurden die Passagen 4 bis 8 wurden für die Experimente verwendet.
HDMECs (5.000 Zellen pro 10 mm runde Glasdeckgläser), die mit DMG-Na (0,005%, 0,02% und 0,05%) behandelt wurden, wurden in 1% Paraformaldehyd (PFA, Merck KGaA, Darmstadt) für 10 Minuten bei Raumtemperatur fixiert und nach einem Waschschritt mit phosphatgepufferter Kochsalzlösung (PBS, Merck KGaA) für 5 Minuten mit -20 °C kalter Ethanol-Essigsäure (2:1) nachfixiert. […]

[2] = system: eNOS; test: Western blot of eNOS protein content in HDMECs
Source text: as §1
HDMECs wurden in 6-Well-Platten ausgesät und für 24 Stunden mit DMG-Na (0,005% und 0,05%) behandelt. Nach der Behandlung wurden die Zellen in Lysispuffer (30 mM TRIS, pH 7,6, 140 mM NaCl, 5 mM EDTA, 50 mM NaF, 1 mM Na3VO4), der mit Proteaseinhibitoren ergänzt wurde, geerntet. Nach kräftigem Vortexen und Zentrifugieren wurde der Proteingehalt der Proben unter Verwendung des Pierce BCA Protein Assay Kits (Thermo Fisher Scientific, Waltham, MA) bestimmt. Gleiche Mengen an Proteinproben wurden einer 7,5%-igen SDS-PAGE unterzogen und auf Nitrocellulose-Membranen (Bio-Rad Laboratories, Hercules, CA) übertragen. […]

[3] = system: HDMECs; test: Microfluorimetric measurement of NO (DAF-FM DA) in HDMECs; settings: DAF-FM-DA microfluorimetry, increase vs control
Source text: as §1
HDMECs wurden mit einer Dichte von 15.000 Zellen pro Well in einer schwarzen 96-WellPlatte mit klarem Boden (Greiner Bio-One, Kremsmünster, Österreich) ausgesät und in Wachstumsmedium bei 37 °C für 24 Stunden kultiviert. Anschließend wurden die Zellen mit 5 µM DAF-FM DA (4-Amino-5-methylamin-2',7'-difluororesceindiacetat) in phenolrotfreiem DMEM (beides von Thermo Fisher Scientific, Waltham, MA), ergänzt mit 0,5% FBS (Serana Europe GmbH, Brandenburg, Deutschland) für 1 Stunde bei 37 °C inkubiert. […]

## CN(C)CC(=O)O [DMG-Na, N,N-Dimethylglycin-Natriumsalz]
[1]
  Expression von eNOS: Expression von eNOS nach 24-stündiger Behandlung zu erhöhen
[2]; 24 h, 0,05% DMG-Na, increase vs control, p=0,0189
  Proteingehalt von eNOS: statistisch signifikant
[2]; 24 h, DMG-Na 0,005% and 0,05%, vs control
  Proteingehalt von eNOS: dosisabhängig
[3]; 0.02%, p=0,0002
  zelluläre NO-Produktion: statistisch signifikant
[3]; 0.05%, p=0,0001
  zelluläre NO-Produktion: statistisch signifikant
